Data from the NIST ThermoML archive (doi:10.1021/acs.jced.7b01035).
± gives the expanded uncertainty stated by the source.

Details: 500 kPa, Liquid, Concentric cylinders viscometry

NCCCO [3-amino-1-propanol]
Details | viscosity [mPa·s]
298.15 K | 30.43 ± 0.33
303.15 K | 23.87 ± 0.32
308.15 K | 19.07 ± 0.31
313.15 K | 15.27 ± 0.31
318.15 K | 12.36 ± 0.31
323.15 K | 10.22 ± 0.3
328.15 K | 8.54 ± 0.3
333.15 K | 7.12 ± 0.3
338.15 K | 6.05 ± 0.3
343.15 K | 4.84 ± 0.3
348.15 K | 4.17 ± 0.3
353.15 K | 3.63 ± 0.3
358.15 K | 3.19 ± 0.3
363.15 K | 2.73 ± 0.3
368.15 K | 2.52 ± 0.3
373.15 K | 2.25 ± 0.3
